Three molecules from ChEMBL document CHEMBL1201862, “PubChem BioAssay data set” (2004) can be followed below.

In data set [1] the target is T1, Voltage-gated N-type calcium channel alpha-1B subunit/Amyloid beta A4 precursor protein-binding family A member 1 (Homo sapiens, UniProt Q00975+Q02410). The data set is classed as protein assay.
The target of data set [2] is T1, Voltage-gated N-type calcium channel alpha-1B subunit/Amyloid beta A4 precursor protein-binding family A member 1. The data set is classed as protein assay. This is another data set of the same source.
The target of data set [3] is Induced myeloid leukemia cell differentiation protein Mcl-1 (Homo sapiens, UniProt Q07820). It counts as functional.
For data set [4], the target named is DNA dC->dU-editing enzyme APOBEC-3A (Homo sapiens, UniProt P31941). The data set can be described thus: APOBEC3A DNA deaminase inhibitors, dose response, biochemical (AID 504722). It counts as functional.
Data set [5] concerns the target DNA dC->dU-editing enzyme APOBEC-3G (Homo sapiens, UniProt Q9HC16). Nature of the data set: Dose Response confirmation of small molecule APOBEC3G DNA Deaminase Inhibitors via a fluorescence-based single-stranded DNA deaminase assay. [Related pubchem assays (depositor defined):AID493012, AID493028]. The data set is classed as functional.
The target in data set [6] is T2, Apoptotic protease-activating factor 1 (Homo sapiens, UniProt O14727).
T2 sequence (O14727 whole entry): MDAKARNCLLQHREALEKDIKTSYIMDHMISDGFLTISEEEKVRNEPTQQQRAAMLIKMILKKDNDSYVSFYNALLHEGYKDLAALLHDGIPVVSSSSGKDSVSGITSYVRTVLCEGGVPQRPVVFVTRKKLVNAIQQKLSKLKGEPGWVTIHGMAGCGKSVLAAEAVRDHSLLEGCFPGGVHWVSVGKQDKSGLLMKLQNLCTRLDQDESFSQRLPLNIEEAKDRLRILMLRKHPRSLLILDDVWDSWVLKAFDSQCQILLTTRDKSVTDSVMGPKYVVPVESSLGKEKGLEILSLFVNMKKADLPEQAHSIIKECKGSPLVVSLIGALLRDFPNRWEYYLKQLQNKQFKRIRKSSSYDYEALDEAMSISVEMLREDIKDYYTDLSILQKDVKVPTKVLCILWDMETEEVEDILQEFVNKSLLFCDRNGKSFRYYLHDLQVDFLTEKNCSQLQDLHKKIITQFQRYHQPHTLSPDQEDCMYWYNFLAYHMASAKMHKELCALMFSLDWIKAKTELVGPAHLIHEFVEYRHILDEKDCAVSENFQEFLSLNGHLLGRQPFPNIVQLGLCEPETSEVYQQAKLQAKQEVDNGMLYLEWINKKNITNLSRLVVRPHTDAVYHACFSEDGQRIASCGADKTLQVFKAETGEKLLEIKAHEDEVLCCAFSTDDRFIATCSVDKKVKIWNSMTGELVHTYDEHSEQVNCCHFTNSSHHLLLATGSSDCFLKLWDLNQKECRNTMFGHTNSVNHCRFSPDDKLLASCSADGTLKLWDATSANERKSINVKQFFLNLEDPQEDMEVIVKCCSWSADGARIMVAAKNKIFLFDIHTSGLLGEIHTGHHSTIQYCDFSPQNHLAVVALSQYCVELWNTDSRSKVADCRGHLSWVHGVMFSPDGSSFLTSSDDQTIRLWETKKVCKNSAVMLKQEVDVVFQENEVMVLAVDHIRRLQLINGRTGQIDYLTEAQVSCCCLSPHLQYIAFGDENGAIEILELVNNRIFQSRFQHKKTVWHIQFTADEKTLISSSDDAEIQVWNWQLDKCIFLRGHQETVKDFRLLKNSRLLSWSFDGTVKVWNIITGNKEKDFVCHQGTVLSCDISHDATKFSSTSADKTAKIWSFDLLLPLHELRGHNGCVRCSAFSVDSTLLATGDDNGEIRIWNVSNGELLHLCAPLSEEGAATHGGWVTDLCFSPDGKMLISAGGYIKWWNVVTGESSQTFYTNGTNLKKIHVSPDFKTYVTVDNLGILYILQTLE
The data set can be described thus: activation of Apaf-1 mediated apoptosis – fluorescent, uHTS hits, dose response (AID 588554). The data set is classed as functional.

The target in data set [7] is DNA (cytosine-5)-methyltransferase 1 (Homo sapiens, UniProt P26358). Nature of the data set: DNMT1 methyltransferase inhibitors, confirmation, biochemical, fluorescent molecular beacon (AID 602386). It counts as functional.
Data set [8] has as its target T3, Small ubiquitin-related modifier 1 (Homo sapiens, UniProt P63165). Nature of the data set: inhibitors of SUMO1 peptide binding, dose response, biochemical, fluorescence polarization, uHTS hits (AID 624382). It counts as functional. Particulars: read-out: IC50_Mean. (In general: Fluorescence polarisation rises when a labelled molecule tumbles more slowly, as on binding a larger partner.)

Data set [9] concerns the target T3, Small ubiquitin-related modifier 1. Nature of the data set: inhibitors of SUMO1 partner interactions, dose response, biochemical, FRET (AID 624383). It counts as functional. As to conditions: read-out: IC50_Mean.
In data set [10] the target is Lysine-specific demethylase 4C (Homo sapiens, UniProt Q9H3R0). Nature of the data set: GASC-1 (JMJD2C) histone demethylase inhibitors, dose response, biochemical, DELFIA europium, cherry-picked samples (AID 488835). It counts as functional.
In data set [11] the target is Cytochrome P450 2C19 (Homo sapiens, UniProt P33261). Nature of the data set: Cytochrome panel assay with activity outcomes. Panel member name: p450-cyp2c19 Compounds with AC50 equal or less than 10 uM are considered active. The data set is classed as functional. As to conditions: read-out: AC50.
For data set [12], the target named is Cytochrome P450 2C9 (Homo sapiens, UniProt P11712).
Data set [13] addresses Cytochrome P450 2D6 (Homo sapiens, UniProt P10635).

Active and inactive are the calls of the source. A value given as a limit tells only on which side of the number the result lay.

T1 sequence (Q00975 whole entry): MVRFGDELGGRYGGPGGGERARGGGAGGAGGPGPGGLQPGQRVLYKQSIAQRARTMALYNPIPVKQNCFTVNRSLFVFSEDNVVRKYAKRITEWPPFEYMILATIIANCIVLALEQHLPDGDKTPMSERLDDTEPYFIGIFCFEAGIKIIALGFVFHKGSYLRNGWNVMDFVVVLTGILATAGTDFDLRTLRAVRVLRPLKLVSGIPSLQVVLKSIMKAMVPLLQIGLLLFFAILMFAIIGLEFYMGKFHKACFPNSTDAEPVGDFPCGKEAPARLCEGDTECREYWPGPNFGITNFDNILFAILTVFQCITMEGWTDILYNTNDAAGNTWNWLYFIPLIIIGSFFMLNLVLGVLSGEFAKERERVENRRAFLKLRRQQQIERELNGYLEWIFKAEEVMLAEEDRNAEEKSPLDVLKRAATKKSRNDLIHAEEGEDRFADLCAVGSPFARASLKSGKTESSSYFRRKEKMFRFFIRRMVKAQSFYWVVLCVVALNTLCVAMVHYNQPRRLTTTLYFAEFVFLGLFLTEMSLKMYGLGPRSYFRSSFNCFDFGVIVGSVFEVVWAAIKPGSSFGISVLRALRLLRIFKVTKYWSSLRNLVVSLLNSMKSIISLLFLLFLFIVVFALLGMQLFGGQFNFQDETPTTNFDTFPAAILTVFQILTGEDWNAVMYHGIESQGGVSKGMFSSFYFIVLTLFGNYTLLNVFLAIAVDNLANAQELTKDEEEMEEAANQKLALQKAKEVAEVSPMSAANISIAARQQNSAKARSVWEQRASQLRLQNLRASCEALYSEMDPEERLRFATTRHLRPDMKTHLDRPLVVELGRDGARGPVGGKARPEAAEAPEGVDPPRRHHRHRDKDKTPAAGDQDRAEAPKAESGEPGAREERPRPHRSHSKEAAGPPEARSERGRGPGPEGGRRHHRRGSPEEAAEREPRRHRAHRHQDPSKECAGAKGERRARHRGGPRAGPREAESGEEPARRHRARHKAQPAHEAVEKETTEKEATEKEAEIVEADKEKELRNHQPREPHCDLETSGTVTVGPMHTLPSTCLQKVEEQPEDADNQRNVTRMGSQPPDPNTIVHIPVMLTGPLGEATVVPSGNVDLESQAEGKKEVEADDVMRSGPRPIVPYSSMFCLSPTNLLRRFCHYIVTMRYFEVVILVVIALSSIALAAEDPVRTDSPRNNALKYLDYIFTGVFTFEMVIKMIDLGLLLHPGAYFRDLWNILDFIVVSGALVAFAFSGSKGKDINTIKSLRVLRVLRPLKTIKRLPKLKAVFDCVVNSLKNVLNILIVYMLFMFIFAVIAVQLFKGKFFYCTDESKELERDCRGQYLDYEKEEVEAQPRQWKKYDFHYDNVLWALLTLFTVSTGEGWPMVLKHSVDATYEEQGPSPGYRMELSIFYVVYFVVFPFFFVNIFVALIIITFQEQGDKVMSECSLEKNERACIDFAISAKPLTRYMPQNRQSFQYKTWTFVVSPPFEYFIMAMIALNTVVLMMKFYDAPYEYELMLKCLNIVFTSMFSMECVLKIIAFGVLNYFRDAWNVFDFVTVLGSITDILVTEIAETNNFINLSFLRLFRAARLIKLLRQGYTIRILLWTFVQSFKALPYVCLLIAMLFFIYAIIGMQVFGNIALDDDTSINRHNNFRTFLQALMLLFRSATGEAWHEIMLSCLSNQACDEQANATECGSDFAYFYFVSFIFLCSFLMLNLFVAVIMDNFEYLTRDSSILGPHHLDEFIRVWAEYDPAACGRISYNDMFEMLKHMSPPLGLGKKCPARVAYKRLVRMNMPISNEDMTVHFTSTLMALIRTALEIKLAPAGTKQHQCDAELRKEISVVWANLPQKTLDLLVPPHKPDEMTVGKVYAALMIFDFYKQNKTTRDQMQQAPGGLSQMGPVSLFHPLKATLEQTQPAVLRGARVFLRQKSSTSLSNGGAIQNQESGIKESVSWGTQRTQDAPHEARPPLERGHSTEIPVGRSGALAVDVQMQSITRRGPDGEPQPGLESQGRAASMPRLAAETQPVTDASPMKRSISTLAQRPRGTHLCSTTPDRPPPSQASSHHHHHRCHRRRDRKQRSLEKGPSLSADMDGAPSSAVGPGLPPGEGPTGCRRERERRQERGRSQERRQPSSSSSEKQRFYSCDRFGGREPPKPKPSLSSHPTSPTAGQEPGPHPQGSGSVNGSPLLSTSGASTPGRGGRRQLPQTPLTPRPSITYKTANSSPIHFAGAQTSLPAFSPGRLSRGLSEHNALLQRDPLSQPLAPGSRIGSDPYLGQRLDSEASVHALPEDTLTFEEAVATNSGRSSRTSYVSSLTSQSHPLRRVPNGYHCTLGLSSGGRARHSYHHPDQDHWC
T1 sequence (Q02410 whole entry): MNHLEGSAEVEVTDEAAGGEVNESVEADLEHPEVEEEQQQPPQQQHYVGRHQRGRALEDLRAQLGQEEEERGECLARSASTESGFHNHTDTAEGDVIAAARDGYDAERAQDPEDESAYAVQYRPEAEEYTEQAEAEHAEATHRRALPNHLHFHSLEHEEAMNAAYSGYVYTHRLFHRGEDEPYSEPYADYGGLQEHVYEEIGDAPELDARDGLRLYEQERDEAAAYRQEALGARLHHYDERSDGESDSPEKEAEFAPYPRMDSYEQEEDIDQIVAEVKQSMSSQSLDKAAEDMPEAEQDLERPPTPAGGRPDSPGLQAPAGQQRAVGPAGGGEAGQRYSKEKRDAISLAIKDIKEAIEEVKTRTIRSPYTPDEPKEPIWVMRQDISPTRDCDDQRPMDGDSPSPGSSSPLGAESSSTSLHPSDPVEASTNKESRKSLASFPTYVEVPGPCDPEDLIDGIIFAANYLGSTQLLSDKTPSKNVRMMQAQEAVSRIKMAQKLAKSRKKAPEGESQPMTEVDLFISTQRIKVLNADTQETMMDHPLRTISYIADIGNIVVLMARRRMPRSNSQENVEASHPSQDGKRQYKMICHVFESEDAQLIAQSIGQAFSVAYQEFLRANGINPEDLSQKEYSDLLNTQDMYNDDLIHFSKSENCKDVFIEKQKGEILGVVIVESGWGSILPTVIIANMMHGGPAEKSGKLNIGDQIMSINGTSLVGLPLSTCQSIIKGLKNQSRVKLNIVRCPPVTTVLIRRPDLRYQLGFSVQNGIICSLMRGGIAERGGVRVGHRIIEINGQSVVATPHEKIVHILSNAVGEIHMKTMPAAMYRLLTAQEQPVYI
T3 sequence (P63165 whole entry): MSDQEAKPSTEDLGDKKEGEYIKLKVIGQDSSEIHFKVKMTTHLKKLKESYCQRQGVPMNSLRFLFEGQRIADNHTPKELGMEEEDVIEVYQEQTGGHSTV
Induced myeloid leukemia cell differentiation protein Mcl-1, sequence (Q07820 whole entry): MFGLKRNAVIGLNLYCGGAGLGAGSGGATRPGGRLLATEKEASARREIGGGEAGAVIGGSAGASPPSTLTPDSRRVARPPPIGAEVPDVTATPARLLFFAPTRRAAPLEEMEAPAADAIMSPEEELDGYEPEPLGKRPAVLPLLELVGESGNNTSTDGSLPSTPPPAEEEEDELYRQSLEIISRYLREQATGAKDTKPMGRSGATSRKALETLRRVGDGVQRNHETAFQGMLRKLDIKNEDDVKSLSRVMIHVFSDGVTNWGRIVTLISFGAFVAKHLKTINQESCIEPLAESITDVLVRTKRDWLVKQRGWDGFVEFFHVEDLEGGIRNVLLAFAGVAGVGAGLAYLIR
Lysine-specific demethylase 4C, sequence (Q9H3R0 whole entry): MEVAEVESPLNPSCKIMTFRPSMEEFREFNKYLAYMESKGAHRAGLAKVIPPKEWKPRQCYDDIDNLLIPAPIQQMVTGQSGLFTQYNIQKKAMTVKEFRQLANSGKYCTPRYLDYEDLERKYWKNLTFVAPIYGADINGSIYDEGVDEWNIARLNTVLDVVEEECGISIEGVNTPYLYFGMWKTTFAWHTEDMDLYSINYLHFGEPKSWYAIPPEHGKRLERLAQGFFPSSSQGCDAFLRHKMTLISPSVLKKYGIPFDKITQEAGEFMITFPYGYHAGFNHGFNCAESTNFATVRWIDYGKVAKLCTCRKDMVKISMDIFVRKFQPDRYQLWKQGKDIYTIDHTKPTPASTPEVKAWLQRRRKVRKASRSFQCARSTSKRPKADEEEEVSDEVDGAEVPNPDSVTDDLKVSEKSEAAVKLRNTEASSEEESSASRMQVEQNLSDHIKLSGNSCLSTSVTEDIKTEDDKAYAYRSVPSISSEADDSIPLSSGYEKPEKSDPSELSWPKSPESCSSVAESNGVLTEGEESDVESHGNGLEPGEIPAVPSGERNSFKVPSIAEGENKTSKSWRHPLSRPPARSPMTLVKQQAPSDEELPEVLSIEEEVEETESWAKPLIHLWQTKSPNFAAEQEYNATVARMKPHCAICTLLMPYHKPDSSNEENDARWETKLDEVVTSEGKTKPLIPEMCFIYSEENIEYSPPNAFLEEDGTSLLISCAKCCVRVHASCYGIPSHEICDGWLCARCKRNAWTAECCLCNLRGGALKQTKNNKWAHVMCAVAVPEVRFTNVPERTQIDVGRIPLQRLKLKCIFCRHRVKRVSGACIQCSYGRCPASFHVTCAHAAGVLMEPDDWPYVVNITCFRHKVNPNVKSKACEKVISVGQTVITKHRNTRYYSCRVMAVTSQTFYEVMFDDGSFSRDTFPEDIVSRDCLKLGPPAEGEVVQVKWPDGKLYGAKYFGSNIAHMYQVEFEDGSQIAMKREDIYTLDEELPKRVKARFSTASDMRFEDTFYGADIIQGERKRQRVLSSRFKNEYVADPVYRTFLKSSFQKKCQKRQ
DNA dC->dU-editing enzyme APOBEC-3A, sequence (P31941 whole entry): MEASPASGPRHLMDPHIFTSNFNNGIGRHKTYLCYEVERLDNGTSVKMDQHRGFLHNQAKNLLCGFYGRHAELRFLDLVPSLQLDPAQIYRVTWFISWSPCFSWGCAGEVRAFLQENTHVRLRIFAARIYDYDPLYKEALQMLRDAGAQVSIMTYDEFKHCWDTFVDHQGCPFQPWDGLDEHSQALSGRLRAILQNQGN

For `C=C(C)C(=O)Nc1cccc(C2=NOC3(C2)C[C@@H](C(N)=O)N(C(=O)/C=C/C=C/C)C3)c1` (stereo partly drawn), the IC50 in data set [1] was 10 µM (active); in data set [2], 34.3 µM (active); in [3] it was 2.3 µM (active); in data set [4], > 100 µM (inactive); in data set [5] it was 3.41 µM (active); in [7], 3.25 µM (active). For the same molecule, the IC50 was > 66.6 µM (inactive) in [8] and 1.72 µM (active) in data set [9]. The EC50 in data set [6] is 1.17 µM (active).
Turning to `O=C(Nc1cc(S(=O)(=O)N2CCOCC2)ccc1N1CCCC1)c1ccc(F)cc1`, in data set [10], the AC50 is 20.1 µM (active).
Regarding `CCCOc1ccc(/C=C/C(=O)Nc2ccc([N+](=O)[O-])cc2C)cc1`, the AC50 in [11] is 0.631 µM (inconclusive); in [12], 1.41 µM (inconclusive); in [13] it was “inconclusive”.

In general, EC50 refers to the concentration at which the effect is half-maximal. The AC50 is the concentration giving half of the maximal activity seen.
